Test results reported in patent US20260297085A1, “1 H-PYRROLO[2,3-B]PYRIDIN-4-YL]-2-OXOPYRROLIDINE-3-CARBONITRILE DERIVATIVES AS TYROSINE KINASE 2 (TYK2) INHIBITORS FOR THE TREATMENT OF INFLAMMATORY DISEASES” (BIOGEN MA INC., priority 2023, published 2026).
pIC50: −log10 of the molar value. Structures can show the parent of a compound that is named as a salt.

Key:
[1] = target: T1, human JAK3 kinase domain (JH1) (Homo sapiens, UniProt P52333); experiment: JH1 biochemical assay for JAK3 (ADP-Glo kinase assay, recombinant JH1 catalytic domain, JAK3-974 peptide, 4 μM ATP)
T1 construct: recombinantly generated catalytic kinase (also known as JH1) domain of human JAK1, JAK2, JAK3 and TYK2
T1 sequence (P52333 822-1111 limits assumed): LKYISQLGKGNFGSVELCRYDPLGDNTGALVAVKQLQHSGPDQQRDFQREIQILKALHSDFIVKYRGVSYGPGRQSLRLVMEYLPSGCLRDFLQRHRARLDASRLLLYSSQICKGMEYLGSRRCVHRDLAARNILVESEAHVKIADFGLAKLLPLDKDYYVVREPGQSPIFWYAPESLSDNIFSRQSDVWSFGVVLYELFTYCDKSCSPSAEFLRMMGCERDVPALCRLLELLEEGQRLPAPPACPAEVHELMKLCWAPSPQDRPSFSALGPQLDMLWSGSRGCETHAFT
Summary of the method: (§1)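 Reactions ran 100 min with 50 μM substrate peptide (JAK3-342 for JAK1 at 4 nM enzyme; JAK3-974 for JAK2 0.2 nM, JAK3 0.3 nM, TYK2 2 nM), and ADP formed was read by ADP-Glo luminescence. Eleven-point 3-fold series from 10 or 1 μM; IC50 fitted by 4-parameter logistic model.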

[2] = target: T2, human JAK1 kinase domain (JH1) (Homo sapiens, UniProt P23458); experiment: JH1 biochemical assay for JAK1 (ADP-Glo kinase assay, recombinant JH1 catalytic domain, JAK3-342 peptide, 35 μM ATP)
T2 construct: recombinantly generated catalytic kinase (also known as JH1) domain of human JAK1, JAK2, JAK3 and TYK2
T2 sequence (P23458 875-1153 limits assumed): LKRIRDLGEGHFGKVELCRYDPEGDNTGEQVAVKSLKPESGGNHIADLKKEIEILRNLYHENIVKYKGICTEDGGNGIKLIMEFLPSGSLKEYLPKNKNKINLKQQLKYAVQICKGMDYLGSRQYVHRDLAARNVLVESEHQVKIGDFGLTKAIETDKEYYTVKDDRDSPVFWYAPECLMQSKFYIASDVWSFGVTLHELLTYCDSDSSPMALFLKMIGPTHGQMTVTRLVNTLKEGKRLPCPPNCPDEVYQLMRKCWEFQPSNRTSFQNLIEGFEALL
Summary of the method: as §1

[3] = target: T3, human TYK2 kinase domain (JH1) (Homo sapiens, UniProt P29597); experiment: JH1 biochemical assay for TYK2 (ADP-Glo kinase assay, recombinant JH1 catalytic domain, JAK3-974 peptide, 10 μM ATP)
T3 construct: recombinantly generated catalytic kinase (also known as JH1) domain of human JAK1, JAK2, JAK3 and TYK2
T3 sequence (P29597 897-1176 limits assumed): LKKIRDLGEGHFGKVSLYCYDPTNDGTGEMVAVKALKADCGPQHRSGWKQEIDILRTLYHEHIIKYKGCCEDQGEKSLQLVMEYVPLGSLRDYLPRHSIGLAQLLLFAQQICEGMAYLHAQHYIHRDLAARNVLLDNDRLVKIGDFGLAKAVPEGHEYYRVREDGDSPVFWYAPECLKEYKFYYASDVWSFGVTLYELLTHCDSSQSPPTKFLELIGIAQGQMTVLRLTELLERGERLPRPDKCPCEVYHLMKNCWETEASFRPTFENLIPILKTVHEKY
Summary of the method: as §1

[4] = target: T4, human JAK2 kinase domain (JH1) (Homo sapiens, UniProt O60674); experiment: JH1 biochemical assay for JAK2 (ADP-Glo kinase assay, recombinant JH1 catalytic domain, JAK3-974 peptide, 15 μM ATP)
T4 construct: recombinantly generated catalytic kinase (also known as JH1) domain of human JAK1, JAK2, JAK3 and TYK2
T4 sequence (O60674 849-1124 limits assumed): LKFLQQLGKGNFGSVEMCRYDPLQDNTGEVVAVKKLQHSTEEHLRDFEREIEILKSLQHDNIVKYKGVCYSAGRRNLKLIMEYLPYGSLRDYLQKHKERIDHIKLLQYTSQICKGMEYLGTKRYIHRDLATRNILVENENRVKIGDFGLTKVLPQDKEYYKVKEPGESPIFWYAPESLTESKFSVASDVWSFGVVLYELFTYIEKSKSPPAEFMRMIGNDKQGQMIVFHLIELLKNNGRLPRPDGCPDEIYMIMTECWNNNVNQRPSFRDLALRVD
Summary of the method: as §1

Compound | pIC50 ([1]; JH1 kinase domain, ADP-Glo) | pIC50 ([2]; JH1 kinase domain, ADP-Glo) | pIC50 ([3]; JH1 kinase domain, ADP-Glo) | pIC50 ([4]; JH1 kinase domain, ADP-Glo) | pIC50 ([1]; JAK3 JH1, ADP-Glo) | pIC50 ([2]; JAK1 JH1, ADP-Glo) | pIC50 ([3]; TYK2 JH1, ADP-Glo) | pIC50 ([4]; JAK2 JH1, ADP-Glo)
Cc1ccc(-c2cc3c(N4C[C@@H](C)[C@@](C#N)(C5CC5)C4=O)ccnn3c2)nn1 [Example 137, (3R,4S)-3-cyclopropyl-4-methyl-1-(6-(6-methylpyridazin-3-yl)pyrrolo[1,2-b]pyridazin-4-yl)-2-oxopyrrolidine-3-carbonitrile trifluoroacetate] | 6.00 to 7.00 | 5.30 to 6.00 | 7.30 to 7.70 | 6.00 to 7.00 | – | – | – | –
CC[C@@H]1CN(c2ccnn3cc(-c4cnn(C)c4)cc23)C(=O)[C@@]1(C#N)C1CC1 [Example 26, (3S,4S)-3-cyclopropyl-4-ethyl-1-(6-(1-methyl-1H-pyrazol-4-yl)pyrrolo[1,2-b]pyridazin-4-yl)-2-oxopyrrolidine-3-carbonitrile] | < 5.00 | < 5.00 | < 7.00 | < 5.00 | – | – | – | –
C[C@@H]1CN(c2ccnn3cc(-c4cccnc4OC(F)F)cc23)C(=O)[C@]1(C#N)C1CC1 [Example 50, (3R,4S)-3-cyclopropyl-1-(6-(2-(difluoromethoxy)pyridin-3-y1)pyrrolo[1,2-b]pyridazin-4-yl)-4-methyl-2-oxopyrrolidine-3-carbonitrile] | 5.30 to 6.00 | 5.30 to 6.00 | 7.00 to 7.30 | 5.30 to 6.00 | – | – | – | –
C[C@H]1C[C@](C#N)(C2CC2)C(=O)N1c1ccnn2cc(-c3cnn(C)c3)cc12 [Example 30, (3R,5S)-3-cyclopropyl-5-methyl-1-(6-(1-methyl-1H-pyrazol-4-yl)pyrrolo[1,2-b]pyridazin-4-yl)-2-oxopyrrolidine-3-carbonitrile] | < 5.00 | < 5.00 | < 7.00 | < 5.00 | – | – | – | –
C[C@@H]1CN(c2ccnn3cc(-c4cnn(C)n4)cc23)C(=O)[C@]1(C#N)C1CC1 [Example 99, (3R,4S)-3-cyclopropyl-4-methyl-1-(6-(2-methyl-2H-1,2,3-triazol-4-yl)pyrrolo[1,2-b]pyridazin-4-yl)-2-oxopyrrolidine-3-carbonitrile trifluoroacetate] | 6.00 to 7.00 | 6.00 to 7.00 | 7.30 to 7.70 | 5.30 to 6.00 | – | – | – | –
C[C@@H]1CN(c2nc(-c3cccnc3F)cn3nccc23)C(=O)[C@]1(C#N)C1CC1 [Example 226, (3R,4S)-3-cyclopropyl-1-(6-(2-fluoropyridin-3-yl)pyrazolo[1,5-a]pyrazin-4-yl)-4-methyl-2-oxopyrrolidine-3-carbonitrile trifluoroacetate] | – | – | – | – | < 5.00 | 5.00 to 5.30 | < 7.00 | < 5.00
COc1cc(-c2cn3nccc3c(N3C[C@@H](C)[C@@](C#N)(C4CC4)C3=O)n2)c(F)cn1 [Example 196, (3R,4S)-3-cyclopropyl-1-(6-(5-fluoro-2-methoxypyridin-4-yl)pyrazolo[1,5-a]pyrazin-4-yl)-4-methyl-2-oxopyrrolidine-3-carbonitrile] | 6.00 to 7.00 | 6.00 to 7.00 | 7.30 to 7.70 | 5.30 to 6.00 | – | – | – | –
C[C@@H]1CN(c2nccn3nc(-c4cnn(C)c4)cc23)C(=O)[C@]1(C#N)C1CC1 [Example 216, (3R,4S)-3-cyclopropyl-4-methyl-1-(2-(1-methyl-1H-pyrazol-4-yl)pyrazolo[1,5-a]pyrazin-4-yl)-2-oxopyrrolidine-3-carbonitrile] | < 5.00 | < 5.00 | < 7.00 | < 5.00 | – | – | – | –
COc1cncc(-c2cc3c(N4C[C@@H](C)[C@@](C#N)(C5CC5)C4=O)ccnn3c2)c1 [Example 82, (3R,4S)-3-cyclopropyl-1-(6-(5-methoxypyridin-3-yl)pyrrolo[1,2-b]pyridazin-4-yl)-4-methyl-2-oxopyrrolidine-3-carbonitrile] | < 5.00 | < 5.00 | 7.30 to 7.70 | < 5.00 | – | – | – | –
C[C@@H]1CN(c2nc(-c3cccc4cnn(C)c34)cn3nccc23)C(=O)[C@]1(C#N)C1CC1 [Example 242, (3R,4S)-3-cyclopropyl-4-methyl-1-(6-(1-methyl-1H-indazol-7-yl)pyrazolo[1,5-a]pyrazin-4-yl)-2-oxopyrrolidine-3-carbonitrile] | – | – | – | – | < 5.00 | < 5.00 | < 7.00 | < 5.00
COc1cncc(-c2cn3ncc(F)c3c(N3C[C@@H](C)[C@@](C#N)(C4CC4)C3=O)n2)c1 [Example 223, (3R,4S)-3-cyclopropyl-1-(3-fluoro-6-(5-methoxypyridin-3-yl)pyrazolo[1,5-a]pyrazin-4-yl)-4-methyl-2-oxopyrrolidine-3-carbonitrile] | – | – | – | – | 5.30 to 6.00 | 5.30 to 6.00 | 7.00 to 7.30 | 5.30 to 6.00
Cc1ccc(-n2nc(N3C[C@@H](C)[C@@](C#N)(C4CC4)C3=O)c3ccncc32)cn1 [Example 282, (3R,4S)-3-cyclopropyl-4-methyl-1-(1-(6-methylpyridin-3-yl)-1H-pyrazolo[3,4-c]pyridin-3-yl)-2-oxopyrrolidine-3-carbonitrile] | – | – | – | – | 5.30 to 6.00 | 5.30 to 6.00 | 7.30 to 7.70 | 5.30 to 6.00
Cc1ccc(O)c(-c2cc3c(N4C[C@@H](C)[C@@](C#N)(C5CC5)C4=O)ccnn3c2)n1 [Example 140, (3R,4S)-3-cyclopropyl-1-(6-(3-hydroxy-6-methylpyridin-2-yl)pyrrolo[1,2-b]pyridazin-4-yl)-4-methyl-2-oxopyrrolidine-3-carbonitrile trifluoroacetate] | 5.00 to 5.30 | 5.30 to 6.00 | 7.00 to 7.30 | < 5.00 | – | – | – | –
Cn1cc(-c2cc3c(N4CC[C@](C#N)(C5CC5)C4=O)ccnn3c2)cn1 [Example 14, (R)-3-cyclopropyl-1-(6-(1-methyl-1H-pyrazol-4-yl)pyrrolo[1,2-b]pyridazin-4-yl)-2-oxopyrrolidine-3-carbonitrile] | < 5.00 | < 5.00 | < 7.00 | 5.00 to 5.30 | – | – | – | –
C[C@@H]1CN(c2nn(-c3cccc(=O)n3C)c3cnccc23)C(=O)[C@]1(C#N)C1CC1 [Example 279, (3R,4S)-3-cyclopropyl-4-methyl-1-(1-(1-methyl-6-oxo-1,6-dihydropyridin-2-yl)-1H-pyrazolo[3,4-c]pyridin-3-yl)-2-oxopyrrolidine-3-carbonitrile] | – | – | – | – | < 5.00 | < 5.00 | < 7.00 | < 5.00
COc1cccc(-c2cc3c(N4C[C@@H](C)[C@@](C#N)(C5CC5)C4=O)ccnn3c2)n1 [Example 143, (3R,4S)-3-cyclopropyl-1-(6-(6-methoxypyridin-2-yl)pyrrolo[1,2-b]pyridazin-4-yl)-4-methyl-2-oxopyrrolidine-3-carbonitrile trifluoroacetate] | 6.00 to 7.00 | 6.00 to 7.00 | 7.30 to 7.70 | 5.30 to 6.00 | – | – | – | –
C[C@@H]1CN(c2ccnn3cc(-c4cnc(N(C)C)nc4)cc23)C(=O)[C@]1(C#N)C1CC1 [Example 91, (3R,4S)-3-cyclopropyl-1-(6-(2-(dimethylamino)pyrimidin-5-yl)pyrrolo[1,2-b]pyridazin-4-yl)-4-methyl-2-oxopyrrolidine-3-carbonitrile] | 5.30 to 6.00 | 6.00 to 7.00 | 7.30 to 7.70 | 5.30 to 6.00 | – | – | – | –
Cc1csc(-c2cc3c(N4C[C@@H](C)[C@@](C#N)(C5CC5)C4=O)ccnn3c2)n1 [Example 113, (3R,4S)-3-cyclopropyl-4-methyl-1-(6-(4-methylthiazol-2-yl)pyrrolo[1,2-b]pyridazin-4-yl)-2-oxopyrrolidine-3-carbonitrile trifluoroacetate] | 6.00 to 7.00 | 6.00 to 7.00 | 7.30 to 7.70 | 5.30 to 6.00 | – | – | – | –
C[C@@H]1CN(c2ccnn3cc(-c4cncc(C(F)(F)F)c4)cc23)C(=O)[C@]1(C#N)C1CC1 [Example 70, (3R,4S)-3-cyclopropyl-4-methyl-2-oxo-1-(6-(5-(trifluoromethyl)pyridin-3-yl)pyrrolo[1,2-b]pyridazin-4-yl)pyrrolidine-3-carbonitrile] | 5.30 to 6.00 | 5.30 to 6.00 | 7.00 to 7.30 | 5.30 to 6.00 | – | – | – | –
C[C@@H]1CN(c2ccnn3cc(-c4cc(CO)ccn4)cc23)C(=O)[C@]1(C#N)C1CC1 [Example 148, (3R,4S)-3-cyclopropyl-1-(6-(4-(hydroxymethyl)pyridin-2-yl)pyrrolo[1,2-b]pyridazin-4-yl)-4-methyl-2-oxopyrrolidine-3-carbonitrile trifluoroacetate] | 6.00 to 7.00 | 6.00 to 7.00 | 7.30 to 7.70 | 6.00 to 7.00 | – | – | – | –
C[C@@H]1CN(c2ccnn3cc(-c4cncc(Cl)c4)cc23)C(=O)[C@]1(C#N)C1CC1 [Example 87, (3R,4S)-1-(6-(5-chloropyridin-3-yl)pyrrolo[1,2-b]pyridazin-4-yl)-3-cyclopropyl-4-methyl-2-oxopyrrolidine-3-carbonitrile] | < 5.00 | 5.00 to 5.30 | 7.30 to 7.70 | < 5.00 | – | – | – | –
C[C@@H]1CN(c2nc(-c3cncc(C(F)(F)F)c3)cn3nccc23)C(=O)[C@]1(C#N)C1CC1 [Example 260, (3R,4S)-3-cyclopropyl-4-methyl-2-oxo-1-(6-(5-(trifluoromethyl)pyridin-3-yl)pyrazolo[1,5-a]pyrazin-4-yl)pyrrolidine-3-carbonitrile trifluoroacetate] | – | – | – | – | 5.30 to 6.00 | 6.00 to 7.00 | 7.00 to 7.30 | 5.30 to 6.00
